ChEMBL document CHEMBL5252589, “Bioactive Piperazic Acid-Bearing Cyclodepsipeptides, Lydiamycins E-H, from an Endophytic Streptomyces sp. Associated with Cinnamomum cassia” (J Nat Prod, 2023)
In brackets after ≈: the same amount, converted by molar mass. Activity calls are given as the source filed them. The calls are words filed in the database; no cut-off is given here.

Tests used:
[1] = system: PANC-1; assay: Antimetastatic activity in human PANC-1 cells assessed as suppression of cell migration incubated for 24 to 48 hrs by inverted microscope based scratch wound healing assay; assay type: functional; conditions: dose 40-80 µM, time 24-48 hrs
[2] = system: PANC-1; assay: Cytotoxicity against human PANC-1 cells assessed as inhibition of cell growth incubated for 72 hrs by MTT assay; assay type: functional, cell-based; conditions: PANC-1, 72 h
[3] = system: PANC-1; assay: Antimetastatic activity in human PANC-1 cells assessed as suppression of cell invasion at 40 to 80 uM incubated for 24 hrs by crystal violet staining based transwell assay; assay type: functional; conditions: dose 40-80 µM
[4] = system: Mycobacterium tuberculosis; assay: Antibacterial activity against Mycobacterium tuberculosis H37Rv ATCC 27294 assessed as inhibition of bacterial growth; assay type: functional
[5] = system: PANC-1; assay: Antimetastatic activity in human PANC-1 cells assessed as inhibition of cell migration at 40 uM incubated for 24 hrs by inverted microscope based scratch wound healing assay relative to control; assay type: functional
[6] = system: PANC-1; assay: Antimetastatic activity in human PANC-1 cells assessed as inhibition of cell migration at 40 uM incubated for 48 hrs by inverted microscope based scratch wound healing assay relative to control; assay type: functional
[7] = system: PANC-1; assay: Antimetastatic activity in human PANC-1 cells assessed as inhibition of cell migration at 80 uM incubated for 24 hrs by inverted microscope based scratch wound healing assay relative to control; assay type: functional
[8] = system: PANC-1; assay: Antimetastatic activity in human PANC-1 cells assessed as inhibition of cell migration at 80 uM incubated for 48 hrs by inverted microscope based scratch wound healing assay relative to control; assay type: functional
[9] = system: Mycobacterium tuberculosis; assay: Antibacterial activity against Mycobacterium tuberculosis mc2 6230; assay type: functional
[10] = system: Mycobacterium tuberculosis; assay: Antibacterial activity against Mycobacterium tuberculosis H37Rv; assay type: functional

Structure (SMILES) | Activity [1] | IC50 [2] [µM] | Activity [3] | MIC [4] [µg/mL] | inhibition at 40 µM [5] [%] | inhibition at 40 µM [6] [%] | inhibition at 80 µM [7] [%] | inhibition at 80 µM [8] [%] | MIC50 [9] [µg/mL] | MIC50 [10] [µg/mL]
CC(C)C[C@H]1NC(=O)[C@@H](NC(=O)[C@@H]2CCC=NN2)COC(=O)[C@@H]2CCCNN2C(=O)[C@H](C)NC1=O | Dose-Dependent Effect | > 100 | Active | > 20 |  |  |  |  |  | 
CCCC[C@H](CC(=O)N1N=CCC[C@H]1C(=O)N[C@H]1COC(=O)[C@@H]2CCCNN2C(=O)[C@H](C)NC(=O)[C@@H](CC(C)C)NC1=O)C(=O)O | Dose-Dependent Effect | > 100 | Active | > 20 |  |  |  |  |  | 
CCCCC[C@H](CC(=O)N1N=C[C@H](O)C[C@H]1C(=O)N[C@H]1COC(=O)[C@@H]2CCCNN2C(=O)[C@H](C)NC(=O)[C@@H](CC(C)C)NC1=O)C(=O)O |  | > 100 | Active | > 20 | 11 | 11 | 19 | 26 |  | 
CC(C)C[C@H]1NC(=O)[C@@H](NC(=O)[C@@H]2CCC=NN2C(=O)CCC(=O)O)COC(=O)[C@@H]2CCCNN2C(=O)[C@H](C)NC1=O | Dose-Dependent Effect | > 100 | Active | > 20 |  |  |  |  |  | 
CCCCC[C@H](CC(=O)N1N=CCC[C@H]1C(=O)N[C@H]1COC(=O)[C@@H]2CCCNN2C(=O)[C@H](C)NC(=O)[C@@H](CC(C)C)NC1=O)C(=O)O |  | > 100 | Active | > 20 | 36 | 11 | 45 | 49 | 31 (≈ 46.7 µM) | 12.5 (≈ 18.8 µM)
